From patent publication US10689429B2, “Double-acylated GLP-1 compounds” (Novo Nordisk A/S, priority 2014, dated 2020)
Where two headings read alike, the source gives them in different places. *1 amine or outer side, *2 acyl side, *3 side chain or, on linkers, in order; H or OH if unused. Where a SMILES comes first, the peptide text is derived from it. Where no end group is shown, it is not given here. Side-chain parts run from the residue outwards. [ ]: non-standard residue; d: D form. The star is where a group is joined. Undecanoyl(11-OPh(4-COOH)) = O=C(O)c1ccc(OCCCCCCCCCCC(=O)*)cc1; γGlu = O=C(O)[C@H](CCC(=O)[*:2])N[*:1]; AEEA = NCCOCCOCC(=O)O; Aib = CC(C)(N)C(=O)O

Key:
human GLP-1 receptor [1] = target: T1, human GLP-1 receptor (Homo sapiens, UniProt P43220); experiment: In vitro potency, CRE luciferase reporter gene assay in BHK cells expressing the human GLP-1 receptor; type: cell-based; conditions: average of duplicates;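 further: firefly luciferase luminescence read after 3 h incubation at 37 °C, compounds tested in an eight-point series from 0.01 pM to 100 nM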
T1 construct: expressed in transfected cells; host or cells: membranes from BHK cells, parent line BHKTS13, clone FCW467-12A
Experimental: The in vitro potency is the measure of human GLP-1 receptor activation in a whole cell assay.
In vitro potency was determined by measuring the response of the human GLP-1 receptor in a reporter gene assay. The assay was performed in a stably transfected BHK cell line that expresses the human GLP-1 receptor and contains the DNA for the cAMP response element (CRE) coupled to a promoter and the gene for firefly luciferase (CRE luciferase). When the human GLP-1 receptor is activated it results in the production of cAMP, which in turn results in the luciferase protein being expressed. When assay incubation is completed the luciferase substrate (luciferin) is added and the enzyme converts luciferin to oxyluciferin to produce bioluminescence. The luminescence is measured as the readout for the assay.
An increase of the in vitro potency, EC50 value, in the presence of serum albumin would indicate an affinity to serum albumin and represents a method to predict a protracted pharmacokinetic profile of the test substance in animal models.
The cells were cultured at 5% CO2 in Cell Culture Medium. They were aliquoted and stored in liquid nitrogen. Before each assay an aliquot is taken up and washed twice in PBS before being suspended at the desired concentration in the assay specific buffer. For 96-well plates the suspension was made to give a final concentration of 5×10^3 cells/well.
Assay Medium consisted of DMEM w/o phenol red, 10 mM Hepes and 1× Glutamax. The 1% Assay Buffer consisted of 2% ovalbumin, 0.2% Pluronic F-68 and 2% HSA in Assay Medium. The 0% Assay Buffer consisted of 2% ovalbumin and 0.2% Pluronic F-68 in Assay Medium.
1) Cell stocks were thawed in a 37° C. water bath.
2) Cells were washed three times in PBS.
3) The cells were counted and adjusted to 5×10^3 cells/50 μl (1×10^5 cells/ml) in Assay Medium. A 50 μl aliquot of cells was transferred to each well in the assay plate.
4) Stocks of the test compounds and reference compounds were diluted to a concentration of 0.2 pM in 0% Assay Buffer for the 0% HSA CRE luciferase assay and 1% Assay Buffer for the 1% HSA CRE luciferase assay. […] Compounds were tested at the following final concentrations: 1×10^−7 M, 1×10^−8 M; 1×10^−9 M, 1×10^−10 M, 1×10^−11 M, 1×10^−12 M, 1×10^−13 M, and 1×10^−14 M. 6) The assay plate was incubated for 3 h in a 5% CO2 incubator at 37° C. […] 8) A 100 μl aliquot of steadylite plus reagent was added to each well of the assay plate (reagent was light sensitive). 9) Each assay plate was covered with aluminum foil to protect it from light and shaken for 30 min at room temperature. 10) Each assay plate was read in a Packard TopCount NXT instrument. Calculations and Results
The data from the TopCount instrument were transferred to GraphPad Prism software. The software performs a non-linear regression (log(agonist) vs response).
A minimum of two replicates was measured for each sample on separate assay plates. The reported values are averages of the duplicates. For some examples more than one assay was run and in this case the data reported are the averages of the averaged duplicates.

human GLP-1 receptor [2] = target: human GLP-1 receptor (human, UniProt P43220)
[3] = EC50/pM (1% HSA), 1% HSA final assay concentration

T1 sequence (P43220 24-463): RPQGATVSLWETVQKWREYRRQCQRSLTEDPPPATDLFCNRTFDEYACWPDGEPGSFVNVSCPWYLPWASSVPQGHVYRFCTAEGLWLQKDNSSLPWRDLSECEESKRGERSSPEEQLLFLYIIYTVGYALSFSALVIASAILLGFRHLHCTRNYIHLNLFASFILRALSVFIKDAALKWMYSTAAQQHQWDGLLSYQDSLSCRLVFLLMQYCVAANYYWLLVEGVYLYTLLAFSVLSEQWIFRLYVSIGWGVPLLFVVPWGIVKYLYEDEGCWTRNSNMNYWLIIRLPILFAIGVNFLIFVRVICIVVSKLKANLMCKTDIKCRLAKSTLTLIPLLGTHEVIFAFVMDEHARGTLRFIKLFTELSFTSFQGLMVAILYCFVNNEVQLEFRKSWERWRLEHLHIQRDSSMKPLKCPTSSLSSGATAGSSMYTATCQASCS
Chain of human GLP-1 receptor (human, UniProt P43220) (P43220 24-463): as above

EC50 (human GLP-1 receptor [1]; 0% HSA, read-out: EC50/pM (0% HSA))	EC50/pM (0% HSA) (human GLP-1 receptor [2])	EC50/pM (1% HSA) (human GLP-1 receptor [2])	Molecule	EC50 (human GLP-1 receptor [1]; EC50/pM (0% HSA), 0% HSA)	EC50 (human GLP-1 receptor [1]; [3])
			CC[C@H](C)[C@H](NC(=O)[C@H](Cc1ccccc1)NC(=O)[C@H](CCC(=O)O)NC(=O)[C@H](CCCNC(=N)N)NC(=O)[C@H](C)NC(=O)[C@H](C)NC(=O)[C@H](CCC(N)=O)NC(=O)[C@H](CCC(=O)O)NC(=O)[C@H](CCC(=O)O)NC(=O)[C@H](CC(C)C)NC(=O)[C@H](Cc1ccc(O)cc1)NC(=O)[C@H](CO)NC(=O)[C@H](CO)NC(=O)[C@@H](NC(=O)[C@H](CC(=O)O)NC(=O)[C@H](CO)NC(=O)[C@@H](NC(=O)[C@H](Cc1ccccc1)NC(=O)[C@@H](NC(=O)CNC(=O)[C@H](CCC(=O)O)NC(=O)CNC(=O)[C@@H](N)Cc1c[nH]cn1)[C@@H](C)O)[C@@H](C)O)C(C)C)C(=O)N[C@@H](C)C(=O)N[C@@H](Cc1c[nH]c2ccccc12)C(=O)N[C@@H](CC(C)C)C(=O)N[C@H](C(=O)N[C@@H](CCCNC(=N)N)C(=O)NCC(=O)N[C@@H](CCCCNC(=O)COCCOCCNC(=O)COCCOCCNC(=O)CC[C@H](NC(=O)CCCCCCCCCCOc1ccc(C(=O)O)cc1)C(=O)O)C(=O)N[C@@H](CCCCNC(=O)COCCOCCNC(=O)COCCOCCNC(=O)CC[C@H](NC(=O)CCCCCCCCCCOc1ccc(C(=O)O)cc1)C(=O)O)C(=O)O)C(C)C [Example 17, N{Epsilon-36}-[2-[2-[2-[[2-[2-[2-[[(4S)-4-carboxy-4-[11-(4-carboxyphenoxy)undecanoylamino]butanoyl]amino]ethoxy]ethoxy]acetyl]amino]ethoxy]ethoxy]acetyl], N{Epsilon-37}-[2-[2-[2-[[2-[2-[2-[[(4S)-4-carboxy-4-[11-(4-carboxyphenoxy)undecanoylamino]butanoyl]amino]ethoxy]ethoxy]acetyl]amino]ethoxy]ethoxy]acetyl]-[Gly8,Glu22,Arg26,Arg34,Lys36,Lys37]-GLP-1-(7-37)-peptide] (H-HGEGTFTSDVSSYLEEQAAREFIAWLVRGK([AEEA-AEEA-γGlu-Undecanoyl(11-OPh(4-COOH))])K([AEEA-AEEA-γGlu-Undecanoyl(11-OPh(4-COOH))])-OH; N-terminus and C-terminus assumed)	14 pM	199 pM
			CC[C@H](C)[C@H](NC(=O)[C@H](Cc1ccccc1)NC(=O)[C@H](CCC(=O)O)NC(=O)[C@H](CCCNC(=N)N)NC(=O)[C@H](C)NC(=O)[C@H](C)NC(=O)[C@H](CCC(N)=O)NC(=O)[C@H](CCC(=O)O)NC(=O)[C@H](CCC(=O)O)NC(=O)[C@H](CC(C)C)NC(=O)[C@H](Cc1ccc(O)cc1)NC(=O)[C@H](CO)NC(=O)[C@H](CO)NC(=O)[C@@H](NC(=O)[C@H](CC(=O)O)NC(=O)[C@H](CO)NC(=O)[C@@H](NC(=O)[C@H](Cc1ccccc1)NC(=O)[C@@H](NC(=O)CNC(=O)[C@H](CCC(=O)O)NC(=O)C(C)(C)NC(=O)[C@@H](N)Cc1c[nH]cn1)[C@@H](C)O)[C@@H](C)O)C(C)C)C(=O)N[C@@H](CCC(=O)O)C(=O)N[C@@H](Cc1c[nH]c2ccccc12)C(=O)N[C@@H](CC(C)C)C(=O)N[C@H](C(=O)N[C@@H](CCCNC(=N)N)C(=O)NCC(=O)N[C@@H](CCCCNC(=O)COCCOCCNC(=O)COCCOCCNC(=O)CC[C@H](NC(=O)CCCCCCCCCOc1cccc(C(=O)O)c1)C(=O)O)C(=O)N[C@@H](CCCCNC(=O)COCCOCCNC(=O)COCCOCCNC(=O)CC[C@H](NC(=O)CCCCCCCCCOc1cccc(C(=O)O)c1)C(=O)O)C(=O)O)C(C)C [Example 27, N{Epsilon-36}-[2-[2-[2-[[2-[2-[2-[[(4S)-4-carboxy-4-[10-(3-carboxyphenoxy)decanoylamino]butanoyl]amino]ethoxy]ethoxy]acetyl]amino]ethoxy]ethoxy]acetyl], N{Epsilon-37}-[2-[2-[2-[[2-[2-[2-[[(4S)-4-carboxy-4-[10-(3-carboxyphenoxy)decanoylamino]butanoyl]amino]ethoxy]ethoxy]acetyl]amino]ethoxy]ethoxy]acetyl]-[Aib8,Glu22,Arg26,Glu30,Arg34,Lys36,Lys37]-GLP-1-(7-37)-peptide]	13 pM	105 pM
			CC[C@H](C)[C@H](NC(=O)[C@H](Cc1ccccc1)NC(=O)[C@H](CCC(=O)O)NC(=O)[C@H](CCCNC(=N)N)NC(=O)[C@H](C)NC(=O)[C@H](C)NC(=O)[C@H](CCC(N)=O)NC(=O)[C@H](CCC(=O)O)NC(=O)[C@H](CCC(=O)O)NC(=O)[C@H](CC(C)C)NC(=O)[C@H](Cc1ccc(O)cc1)NC(=O)[C@H](CO)NC(=O)[C@H](CO)NC(=O)[C@@H](NC(=O)[C@H](CC(=O)O)NC(=O)[C@H](CO)NC(=O)[C@@H](NC(=O)[C@H](Cc1ccccc1)NC(=O)[C@@H](NC(=O)CNC(=O)[C@H](CCC(=O)O)NC(=O)C(C)(C)NC(=O)[C@@H](N)Cc1c[nH]cn1)[C@@H](C)O)[C@@H](C)O)C(C)C)C(=O)N[C@@H](CCC(=O)O)C(=O)N[C@@H](Cc1c[nH]c2ccccc12)C(=O)N[C@@H](CC(C)C)C(=O)N[C@H](C(=O)N[C@@H](CCCNC(=N)N)C(=O)NCC(=O)N[C@@H](CCCCNC(=O)COCCOCCNC(=O)COCCOCCNC(=O)COCCOCCNC(=O)COCCOCCNC(=O)CC[C@H](NC(=O)CCCCCCCCCOc1cccc(C(=O)O)c1)C(=O)O)C(=O)N[C@@H](CCCCNC(=O)COCCOCCNC(=O)COCCOCCNC(=O)COCCOCCNC(=O)COCCOCCNC(=O)CC[C@H](NC(=O)CCCCCCCCCOc1cccc(C(=O)O)c1)C(=O)O)C(=O)O)C(C)C [Example 28]	12 pM	25 pM
5.6 pM			CC[C@H](C)[C@H](NC(=O)[C@H](Cc1ccccc1)NC(=O)[C@H](CCC(=O)O)NC(=O)[C@H](CCCNC(=N)N)NC(=O)[C@H](C)NC(=O)[C@H](C)NC(=O)[C@H](CCC(N)=O)NC(=O)[C@H](CCC(=O)O)NC(=O)[C@H](CCC(=O)O)NC(=O)[C@H](CC(C)C)NC(=O)[C@H](Cc1ccc(O)cc1)NC(=O)[C@H](CO)NC(=O)[C@H](CO)NC(=O)[C@@H](NC(=O)[C@H](CC(=O)O)NC(=O)[C@H](CO)NC(=O)[C@@H](NC(=O)[C@H](Cc1ccccc1)NC(=O)[C@@H](NC(=O)CNC(=O)[C@H](CCC(=O)O)NC(=O)C(C)(C)NC(=O)[C@@H](N)Cc1c[nH]cn1)[C@@H](C)O)[C@@H](C)O)C(C)C)C(=O)N[C@@H](C)C(=O)N[C@@H](Cc1c[nH]c2ccccc12)C(=O)N[C@@H](CC(C)C)C(=O)N[C@H](C(=O)N[C@@H](CCCNC(=N)N)C(=O)NCC(=O)N[C@@H](CCCCNC(=O)COCCOCCNC(=O)COCCOCCNC(=O)CC[C@H](NC(=O)CC[C@H](NC(=O)CCCCCCCCCCCCC(=O)O)C(=O)O)C(=O)O)C(=O)N[C@@H](CCCCNC(=O)COCCOCCNC(=O)COCCOCCNC(=O)CC[C@H](NC(=O)CC[C@H](NC(=O)CCCCCCCCCCCCC(=O)O)C(=O)O)C(=O)O)C(=O)O)C(C)C [Example 21]		13 pM
	0.8 pM	29 pM	H[Aib]EGTFTSDVSSYLEEQAAREFIAWLVRGK([AEEA-AEEA-γGlu-γGlu-Undecanoyl(11-OPh(4-COOH))])K([AEEA-AEEA-γGlu-γGlu-Undecanoyl(11-OPh(4-COOH))]) [GLP-1 derivative of Example 18]		
